This note sets out measurements from ChEMBL document CHEMBL2021830, “Chlorinated englerins with selective inhibition of renal cancer cell growth” (2012).

Holding throughout (assay type): functional
One assay deals with TK-10. The experiment in a line: Growth inhibition of human TK10 cells after 48 hrs by SRB assay. Background: In SRB staining, fixed cells bind dye roughly in proportion to their protein.
The subject of the next assay is UO-31. As to the kind of experiment: Growth inhibition of human UO31 cells after 48 hrs.
The next assay relates to SN12C. The experiment in a line: Growth inhibition of human SN12C cells after 48 hrs by SRB assay.
Another assay has as its system RXF 393. The experiment in a line: Growth inhibition of human RXF393 cells after 48 hrs by SRB assay.
The next assay has as its system ACHN. As to the kind of experiment: Growth inhibition of human ACHN cells after 48 hrs by SRB assay.
For the next assay, the system named is 786-0. The experiment in a line: Growth inhibition of human 786-0 cells after 48 hrs by SRB assay.
In the next assay the test system is CAKI-1. As to the kind of experiment: Growth inhibition of human CAKI-1 cells after 48 hrs by SRB assay.
A further assay has as its system A498. As to the kind of experiment: Growth inhibition of human A498 cells after 48 hrs.

Turning to `CC(C)[C@@]12C[C@@H](OC(=O)CO)[C@@](C)(O1)[C@@H]1CC[C@@H](C)[C@H]1[C@@H]2OC(=O)/C(Cl)=C/c1ccccc1`, the GI50 with TK-10 (Homo sapiens, TK-10, 48 h) was found to be 21 µM; in the assay with UO-31 (Homo sapiens, UO-31, 48 h), 0.035 µM; in the assay with SN12C (Homo sapiens, SN12C, 48 h), 0.56 µM; with RXF 393 (Homo sapiens, RXF 393, 48 h), 0.059 µM; in the assay on ACHN (Homo sapiens, ACHN, 48 h), 0.041 µM; in the assay with 786-0 (Homo sapiens, 786-0, 48 h), 10 µM. Also, the GI50 in the assay with CAKI-1 (Homo sapiens, CAKI-1, 48 h) is 0.39 µM; in the assay with A498 (Homo sapiens, A498, 48 h) it was 0.028 µM.

Regarding `CC(C)[C@@]12C[C@@H](OC(=O)CO)[C@@](C)(O1)[C@@H]1CC[C@@H](C)[C@H]1[C@@H]2OC(=O)C(Cl)C(O)c1ccccc1` (single isomer, unassigned), the GI50 was determined as 27 µM in the assay with TK-10; 1.9 µM in the assay with UO-31; 4.7 µM in the assay on SN12C; 0.39 µM in the assay with RXF 393; 1.4 µM in the assay with ACHN; 11 µM with 786-0. The GI50 came out at 5 µM in the assay with CAKI-1 and 0.66 µM in the assay with A498.

Consider `CC(C)[C@@]12C[C@@H](OC(=O)CO)[C@@](C)(O1)[C@@H]1CC[C@@H](C)[C@H]1[C@@H]2OC(=O)C(Cl)C(Cl)c1ccccc1` (single isomer, unassigned; epimer 1), for which the concentration for 50% growth inhibition (GI50) in the assay with TK-10 (Homo sapiens, TK-10, 48 h) turned out to be 18 µM; with UO-31 it was 0.39 µM; in the assay on SN12C (Homo sapiens, SN12C, 48 h) it was 0.93 µM; with ACHN, 0.14 µM; in the assay on 786-0 (Homo sapiens, 786-0, 48 h), 12 µM; in the assay on CAKI-1, 0.42 µM. The compound further returned a GI50 in the assay with A498 of 0.14 µM.

On to `CC(C)[C@@]12C[C@@H](OC(=O)CO)[C@@](C)(O1)[C@@H]1CC[C@@H](C)[C@H]1[C@@H]2OC(=O)C(Cl)C(O)c1ccccc1` (single isomer, unassigned; epimer 1), for which the GI50 came out at 17 µM in the assay on TK-10 (Homo sapiens, TK-10, 48 h); 0.25 µM with UO-31; 0.63 µM with SN12C; 0.51 µM in the assay on RXF 393 (Homo sapiens, RXF 393, 48 h); 0.32 µM with ACHN; 1.7 µM with 786-0. The GI50 amounted to 0.46 µM in the assay on CAKI-1 and 0.18 µM in the assay on A498.

With `CC(C)[C@@]12C[C@@H](OC(=O)CO)[C@@](C)(O1)[C@@H]1CC[C@@H](C)[C@H]1[C@@H]2OC(=O)C(Cl)C(Cl)c1ccccc1` (single isomer, unassigned; epimer 2), the GI50 in the assay with TK-10 is 25 µM; in the assay on UO-31, 0.16 µM; in the assay with SN12C, 1 µM; in the assay on ACHN, 0.049 µM; in the assay on CAKI-1, 0.16 µM; in the assay on A498, 0.067 µM.

The term GI50 denotes the concentration at which growth is held to half of that of the control. Low readings indicate greater sensitivity of the cells, high ones lower sensitivity of the cells.
